Measurements from BindingDB's records for doi:10.1021/acs.jmedchem.6b01385 (Medical University of South Carolina, 2016).

Biological target: Histone deacetylase 3 (Homo sapiens, UniProt O15379)
Assay: Allosteric inhibition of C-terminal His-tagged recombinant human HDAC3 expressed in Sf9 cells pre-incubated for 2 hrs before acetylated lysine-aminomethyl coumarin-BOC addition and measured after 2 hrs by fluorescence based assay

Histone deacetylase 3, sequence (O15379 whole entry): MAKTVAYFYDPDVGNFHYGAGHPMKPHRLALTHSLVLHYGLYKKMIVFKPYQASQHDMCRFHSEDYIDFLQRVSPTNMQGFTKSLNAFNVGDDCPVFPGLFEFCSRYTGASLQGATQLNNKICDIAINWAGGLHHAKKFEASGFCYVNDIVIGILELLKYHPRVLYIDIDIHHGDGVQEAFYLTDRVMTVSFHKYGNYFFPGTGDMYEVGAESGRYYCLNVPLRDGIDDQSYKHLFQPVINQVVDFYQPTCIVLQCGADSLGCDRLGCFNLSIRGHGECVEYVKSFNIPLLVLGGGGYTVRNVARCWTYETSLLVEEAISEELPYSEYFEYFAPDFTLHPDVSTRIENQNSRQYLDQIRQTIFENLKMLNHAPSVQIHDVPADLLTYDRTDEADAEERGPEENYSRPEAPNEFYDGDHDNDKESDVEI

**Q.** How did the IC50 turn out when `CCCCCCCCCCNNC(=O)c1ccc(CNC(=O)c2ccccc2)cc1` [N-(4-(2-decylhydrazine-1-carbonyl)benzyl)benzamide] was run?
**A.** Its IC50 is greater than 10 µM.
